Assay results reported in PubChem BioAssay AID179 (DTP/NCI, 2004).
Several values for one entry are separate records, joined by “and”; a condition that tells them apart may be missing. Equal values may be shown once. Activity calls are given as the source filed them.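 How the source made its calls: active means compounds giving half or more protection of infected cells from virus-caused growth loss, again on retest; inactive means the rest.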

System: CEM cells HIV-1 protection, formazan growth assay
Test: NCI AIDS Antiviral Assay
Details: for IC50: measured here: growth of uninfected CEM cells
Summary of the method: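 Five concentrations of each compound were applied to infected and uninfected human CEM cells. Protection from HIV-1 was judged from growth measured with a soluble formazan assay.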

SMILES | EC50 [µM] | IC50 | outcome
C=C1CC[C@]2(C)C3CC[C@]4(C)C(C(C)CCC(=O)O)CCC4[C@@H]3CC[C@@H]2C1 (some centres not stated) | > 5.13 | > 5.13 µM | 
O=C1NC2=C(CCCCC/C2=N\O)C12CCCCCC2 |  |  | inactive
CC(=O)N(C)CCc1c[nH]c2ccccc12 | > 200 | > 200 µM | 
NC1=C(O)/C(=N/NS(=O)(=O)c2ccccc2)C(c2ccc3c(c2)OCO3)O1 (configuration not stated) | > 3.72 | > 3.72 µM | 
CC(=O)c1ccc2c(c1)CC1(C2)Cc2ccccc2C1=O (configuration not stated) | > 200 | 74.1 µM | 
CC(C)(C)COC(=O)NC1CCC2CCCCC2C1 (configuration not stated) | > 200 | > 200 µM | 
O=C(NN1C(=O)C(Cl)C1c1ccc([N+](=O)[O-])cc1)c1ccccc1O (configuration not stated) | > 10.5 | > 10.5 µM | 
C[N+](C)(C)CC(=O)N/N=C(/Cc1nc2ccc([N+](=O)[O-])cc2[nH]c1=O)C(=O)Nc1cc(C(F)(F)F)ccc1Cl | > 295 | 120 µM | 
O=c1sc(-c2nc3ccccc3[nH]2)c(/N=C/c2ccccc2)n1-c1ccccc1 | > 2.63 | > 2.63 µM | 
COc1ccc(-c2oc(C=Nc3ccccc3)c([N+](=O)[O-])c2-c2ccc(OC)c(OC)c2)cc1OC | > 45.7 | > 45.7 µM | 
CN1C(=O)CC(c2cccc(C3CC(=O)N(C)C3=O)n2)C1=O (configuration not stated) | > 832 | > 832 µM | 
CCSc1[nH]c(NC(=NC(C)C)NC(=O)c2ccccc2)c(C(N)=O)c1C(N)=O |  |  | inactive
[N-]=[N+]=NC[C@H]1OCO[C@H](CN=[N+]=[N-])[C@H]2OCCOCCOc3ccccc3OCCOCCO[C@@H]21 | > 200 | > 200 µM | 
COC(=O)/C=C/CC(=O)NS(C)(=O)=O | > 200 | > 200 µM | 
O=C(O)c1c[nH]c2c([N+](=O)[O-])cccc2c1=O | > 1070 | 9.12 µM | inactive
O=C1Oc2ccccc2CC1C(=O)c1ccc([N+](=O)[O-])cc1 (configuration not stated) | > 63.1 | 52.5 µM | 
O=C(O)c1ccccc1NS(=O)(=O)c1ccc(Cl)cc1 |  |  | inactive
Cc1[nH]c(=O)nc(CC(O)(c2ccccc2)c2ccccc2)c1-c1ccccc1 | > 2.75 | > 2.75 µM | 
COC(=O)C(Cc1ccccc1)NC(=O)Cn1ccnc1[N+](=O)[O-] (configuration not stated) | > 759 | 132 µM | 
CC1(C)[C@@H]2C[C@H]1C(Cc1ccccc1C[C@H]1c3cc(-c4ccccn4)ncc3[C@H]3C[C@@H]1C3(C)C)c1cc(-c3ccccn3)ncc12 (some centres not stated) | > 200 | 0.316 µM | 
Cc1ccccc1NC(=O)C(=O)C(C(=O)c1ccccc1F)C1OC(=O)c2ccccc21 (configuration not stated) | > 302 | 51.3 µM | 
Cc1ccc(S(=O)(=O)Oc2nc3nc4ccccc4nc3nc2OS(=O)(=O)c2ccc(C)cc2)cc1 | > 200 | 102 µM | 
CCOC(=O)N/N=C(\CC)OCC | > 200 | > 200 µM | 

SMILES | EC50 [µM] | IC50 | outcome
O=C(O)C1C=CC(c2ccc(Cl)cc2)=N1 (configuration not stated) | > 200 | > 200 µM | 
CCN(CC)OC(=O)/C=C/c1ccccc1 |  |  | inactive
O=C(/C=C/c1ccccc1)CCN1CCN(CCC(=O)/C=C/c2ccccc2)CC1 | > 200 | 1.51 µM | 
Nc1c(Cl)ncnc1NCCCNc1ncnc(Cl)c1N |  |  | inactive
CCOc1ccc(C(C)c2cc3c(cc2OC)OCO3)cc1 (configuration not stated) | > 33.1 | 0.468 µM | 
CCN(CC)CCn1nc(N)c2nc3cc(Cl)ccc3nc21 | > 100 | 51.3 µM | 
CN(C)c1ccc(-c2c(C#N)c(O)n(NS(=O)(=O)c3ccccc3)c(=O)c2C#N)cc1 | > 200 | > 200 µM | 
Cc1nc2ccccc2c(=O)n1-c1ccccc1Br | > 214 | > 214 µM | 
O=C(CC(=O)N1N=C(N2c3ccccc3Sc3ccccc32)CC1c1ccccc1)Nc1ccccc1Cl (configuration not stated) | > 200 | > 200 µM | 
C#C[C@H]1CCCCCC1O (some centres not stated) | > 1820 | 1230 µM | 
Cc1cc(=O)oc2cc(O/C(=C\c3ccc(O)cc3)c3nc4ccccc4c(=O)o3)ccc12 | > 22.9 | > 22.9 µM | 
C/C=N\n1c(C)n[nH]c1=O | > 200 | > 200 µM | 
Cc1nc2cc[nH]n2c(=O)c1CCc1ccccc1 | > 200 | 151 µM | 
Cc1cccc(C(C)(C)C)c1NC(=O)CC1Sc2ccccc2NC1=O (configuration not stated) | > 51.3 | > 51.3 µM | 
O=[N+]([O-])c1cc2c(cc1O)[nH]c1cccc([N+](=O)[O-])c12 | > 13.8 | > 13.8 µM | 
Nc1ccc(N=Nc2ccc(-c3ccc(N=Nc4c(S(=O)(=O)O)cc5cc(S(=O)(=O)O)c(N=Nc6ccccc6)c(O)c5c4N)cc3)cc2)c2ccc(S(=O)(=O)O)cc12 |  |  | inactive
CCN(CC)CCN1C(=O)C(=O)N(c2cccc3ccccc23)C1=O | > 200 | > 200 µM | 
CC(C)(C)OC(=O)N1CCc2c(n(C/C=C/c3ccccc3)[nH]c2=O)C1 | > 200 | 19.1 µM | 
CN1CCC2CC1c1ccn(C)c1C2=O (configuration not stated) | > 1230 | > 1230 µM | 
CC(C)(C)OC1=C(OC(C)(C)C)C(O)(c2ccccc2)C1=O (configuration not stated) |  |  | inactive
CC12CCCC3(CC(=O)C(C)(C)C3C(=O)C1)C2 (configuration not stated) | > 200 | > 200 µM | 
Cc1cc2cccc(Cl)c2nc1C(=O)c1ccccc1 | > 6.61 | > 6.61 µM | 
Cc1nc2c(c(N3CCN(C)CC3)n1)Cc1ccccc1-2 | > 200 | 41.7 µM | 

SMILES | EC50 [µM] | IC50 | outcome
O=C(N/N=C/c1ccccn1)c1ccccc1[O-].O=C(N/N=C/c1ccccn1)c1ccccc1[O-].[Mn+2] | > 200 | 11.2 µM | 
N#Cc1c(-c2ccc(Cl)cc2)c(C#N)c(=O)n(NS(=O)(=O)c2ccccc2)c1S | > 200 | 17 µM | 
Cc1cccc(C)c1NC(=O)CCC(=O)NC(N)=NC#N | > 457 | > 457 µM | 
Cc1cc(NS(=O)(=O)c2ccc(N=Nc3c(Nc4ccccc4)nn(-c4ccc(S(=O)(=O)Nc5ccncn5)cc4)c3C)cc2)no1 | > 200 | > 200 µM | 
CCOC(=O)/C=C/c1ccccc1Br | > 38.9 | > 38.9 µM | 
O=c1c(O)c(-c2cc(O)c(O)cc2O)oc2cc(O)c(C3OC(CO)C(O)C(O)C3O)c(O)c12 (configuration not stated) | > 200 | 138 µM | 
CCOC1OC(COC(=O)C(C)(C)C)C(O)CC1n1cc(C)c(=O)[nH]c1=O (configuration not stated) | > 200 | > 200 µM | 
COc1nc2nc(C(O)C(O)CO)cnc2c(=O)n1C (configuration not stated) | > 891 | > 891 µM | inactive
N#C/C(=C/Sc1ccccc1)C(=O)O |  |  | inactive
COC(=O)C(Cc1c[nH]c2ccccc12)NC(=O)C(Cc1c[nH]c2ccccc12)NC(=O)OCc1ccccc1 (configuration not stated) |  |  | inactive
O=C1c2ccccc2C(=O)N1N1CC1c1ccccc1 (configuration not stated) | > 200 | 138 µM | 
CCOC(=O)CCC(NC(=O)c1ccc(Oc2nc3ccccc3nc2C(=O)OCC)cc1)C(=O)OCC (configuration not stated) | > 200 | > 200 µM | 
Cn1c(=O)c2c(nc(NCCCCl)n2CC(=O)O)n(C)c1=O | > 200 | > 200 µM | 
O=C1C(CN2CCCC2)CCCC1CN1CCCC1 (configuration not stated) |  |  | inactive
COc1ccccc1/C=C1\Sc2scc(-c3cccc([N+](=O)[O-])c3)[n+]2C1=O |  |  | inactive
O=C1/C(=C/c2ccccc2)CN(C(=O)OCc2ccccc2)C/C1=C\c1ccccc1 |  |  | inactive
C=C(Cc1ccc(O)cc1)C(=C)Cc1ccc(O)cc1 | > 200 | 69.2 µM | 
CC(=O)NC1C(CO)O[C@@H]2OC(C)(C)O[C@H]12 (some centres not stated) | > 200 | > 200 µM | 
Cn1c(=O)c2c(n(C)c1=O)n1c(=O)c3ccccc3nc1n2C | > 200 | > 200 µM | 
O=S(=O)(O)SCCNCCCCC1CCCCC1 | > 200 | 10.2 µM | 
O=C1c2ccccc2Sc2ccccc2N1CCCCCN1CCN(c2ccc(F)cc2)CC1 | > 200 | 8.91 µM | 
CCN(CC)CCNC(=O)C1COc2ccc(-c3cc(=O)c4ccccc4o3)cc2O1 (configuration not stated) |  |  | inactive
O=C1Nc2ncnn2C1=O | > 52.5 | > 52.5 µM | 

SMILES | EC50 [µM] | IC50 | outcome
Cn1c(=O)c2c(nc(Nc3ccc(Cl)cc3)n3c(=O)n(-c4ccccc4)c(=O)n23)n(C)c1=O | > 200 | 145 µM | 
CC1(C)C(=O)C(C)(C)C1=S | > 219 | > 219 µM | 
Nc1ccc2cc3[nH]c4cc(N)ccc4c3nc2c1 | > 1.35 | 0.339 µM | 
O=C1/C(=C/c2ccc(Cl)cc2)NC(=S)N1CN1CCOCC1 | > 200 | 32.4 µM | 
O=C(Nc1ccc2c(O)c(N=Nc3ccccc3)c(S(=O)(=O)O)cc2c1)Nc1ccc2c(O)c(N=Nc3ccccc3)c(S(=O)(=O)O)cc2c1 | 40.7 | 50.1 µM and 191 µM | 
C=C1C(=O)C23C(O)C1CC[C@H]2C12CCCC(C)(COC(C)=O)[C@H]1[C@H](O)[C@]3(O)OC2 (some centres not stated) | > 324 | 0.398 µM | 
CC(C)C[CH2][Ge]([CH2]CC(C)C)([CH2]CC(C)C)[CH2]CC(C)C | > 200 | > 200 µM | 
O=c1cc(-c2ccccc2)oc2cc(OCC(O)COc3ccc4c(=O)cc(-c5ccccc5)oc4c3)ccc12 | > 25.7 | > 25.7 µM | 
Clc1ccc(OCc2nc3ccccc3[nH]2)cc1 | > 200 | 162 µM | 
O=C1CCCCc2cccc(O)c21 | > 200 | > 200 µM | 
O=C1CSCC(=O)O1 | > 1910 | > 1910 µM | 
c1ccc(N2CCN(c3ccccc3)C2)cc1 | > 200 | > 200 µM | 
CCOC(=O)c1c(C)[nH]c(C(=O)C(N=O)C(=O)OCC)c1C (configuration not stated) | > 200 | > 200 µM | 
Cc1c(NC(=S)Nc2ccc([N+](=O)[O-])cc2)c(=O)n(-c2ccccc2)n1C | > 200 | > 200 µM | 
O=C1NC2OC(CO)C(O)C2O1 (configuration not stated) | > 200 | > 200 µM | 
S=C1NCCS1 | > 2090 | 1170 µM | 
COCC(C)(C)N=CN1CCc2ccccc2C1 | > 1000 | > 1000 µM | 
CCN(CC)CCn1c(=O)c2cccnc2n2c3c(=O)n(C)c(=O)n(C)c3nc12 | > 129 | 60.3 µM | 
COc1cc(Cl)cc(=O)c(O)c1OC | > 437 | 20.9 µM | 
Nn1c(CCCCCCCCc2nnc(-c3c(O)ccc4ccccc34)n2N)nnc1-c1c(O)ccc2ccccc12 | > 200 | > 200 µM | 
